≈ marks a conversion by molar mass, not a printed value. Where a SMILES comes first, the peptide text is derived from it. [ ]: non-standard residue; d: D form. The star is where a group is joined. Palmitoyl = CCCCCCCCCCCCCCCC(=O)*; Nlys = NCCCCNCC(=O)O
Key:
[1] = system: all three strains of E. coli; type: cell-based, Escherichia coli; details: 24 h
Procedure, shortened: (§1)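 Testing follows CLSI macrobroth dilution with an inoculum of approximately 5 × 10^5 CFU/mL in cation-adjusted Mueller-Hinton broth. After 24 hr at 37°C the MIC was recorded, without replicate runs.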

E.coli ATCC 25922 = type: cell-based, Escherichia coli; details: ATCC 25922, 24 h
Procedure, shortened: (§2)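 Broth macrodilution MIC per CLSI guidance; single run, no replication. Cation-adjusted Mueller-Hinton broth, inoculum ~5 x 10^5 CFU/mL, 24 hr incubation in ambient air.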

E.coli CAN-ICU 61714 = type: cell-based, Escherichia coli; details: CAN-ICU 61714, 24 h
Procedure, shortened: as §2

E.coli CAN-ICU 63074 = type: cell-based, Escherichia coli; details: CAN-ICU 63074, 24 h
Procedure, shortened: as §2

S.aureus ATCC 29213 = type: cell-based, Staphylococcus aureus; details: ATCC 29213, 24 h
Procedure, shortened: as §2

MRSA ATCC 33592 = type: cell-based, methicillin-resistant S. aureus; details: ATCC 33592, 24 h
Procedure, shortened: as §2

S.pneumoniae ATCC 49619 = type: cell-based, Streptococcus pneumoniae; details: ATCC 49619, 24 h
Procedure, shortened: as §2

MSSE 81388 CANWARD 2008 = type: cell-based, methicillin-susceptible S. epidermidis; details: 24 h
Procedure, shortened: as §2

E. faecalis ATCC 29212 = type: cell-based, Enterococcus faecalis; details: ATCC 29212, 24 h
Procedure, shortened: as §2

[2] = system: P.aeruginosa CAN-ICU 62308; type: cell-based, Pseudomonas aeruginosa; details: CAN-ICU 62308, 24 h
Procedure, shortened: as §2

P.aeruginosa ATCC 27853 = type: cell-based, Pseudomonas aeruginosa; details: ATCC 27853, 24 h
Procedure, shortened: as §2

MRSE CAN-ICU 61589 = type: cell-based, methicillin-resistant S. epidermidis; details: CAN-ICU 61589, 24 h
Procedure, shortened: as §2

ovine erythrocytes = assay: Haemolytic assay; type: cell-based, sheep; details: ovine erythrocytes in Tris buffered saline, 30 minutes, absorbance of supernatant at 540 nm
Procedure, shortened: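 Washed sheep erythrocytes in Tris-buffered saline exposed to compound (50 μg/mL–1 mg/mL; final 4.08 x 10^8 cells/mL) for 30 min. After centrifugation, supernatant absorbance at 540 nm gave % haemolysis; 0.5% ammonium chloride as positive control.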

[3] = system: S. maltophilia CAN-ICU 62584; type: cell-based, Stenotrophomonas maltophilia; details: CAN-ICU 62584, 24 h
Procedure, shortened: as §2

K.pneumoniae ATCC 13883 = type: cell-based, Klebsiella pneumoniae; details: ATCC 13883, 24 h
Procedure, shortened: as §2

[4] = system: A. baumannii CAN-ICU 63169; type: cell-based, Acinetobacter baumannii; details: CAN-ICU 63169, 24 h
Procedure, shortened: as §2

E. faecium ATCC 27270 = type: cell-based; details: ATCC 27270, 24 h
Procedure, shortened: as §2

S. epidermidis = type: cell-based; details: 24 h
Procedure, shortened: as §1

SMILES	MIC E.coli (E.coli ATCC 25922)	MIC E.coli in the presence of 4% bovine serum albumin (E.coli ATCC 25922)	MIC E.coli (E.coli CAN-ICU 61714)	MIC E.coli in the presence of 4% bovine serum albumin (E.coli CAN-ICU 61714)	MIC E.coli (E.coli CAN-ICU 63074)	MIC E.coli in the presence of 4% bovine serum albumin (E.coli CAN-ICU 63074)	MIC S.aureus (S.aureus ATCC 29213)	MIC S.aureus in the presence of 4% bovine serum albumin (S.aureus ATCC 29213)	MIC MRSA (MRSA ATCC 33592)	MIC MRSA in the presence of 4% bovine serum albumin (MRSA ATCC 33592)	MIC S.pneumoniae (S.pneumoniae ATCC 49619)	MIC S.pneumoniae in the presence of 4% bovine serum albumin (S.pneumoniae ATCC 49619)	MIC MSSE (MSSE 81388 CANWARD 2008)	MIC MSSE in the presence of 4% bovine serum albumin (MSSE 81388 CANWARD 2008)	MIC E. faecalis (E. faecalis ATCC 29212)	MIC E. faecalis in the presence of 4% bovine serum albumin (E. faecalis ATCC 29212)	MIC P.aeruginosa [2]	MIC P.aeruginosa in the presence of 4% bovine serum albumin [2]	MIC P.aeruginosa (P.aeruginosa ATCC 27853)	MIC P.aeruginosa in the presence of 4% bovine serum albumin (P.aeruginosa ATCC 27853)	further results
CCCCCCCCCCCCCCCC(=O)N(CCCCNC(=N)N)CC(=O)NCC(=O)N(CCCCNC(=N)N)CC(N)=O [C16-NhargGNharg]	16 µg/mL (≈ 24.5 µM)	512 µg/mL	16 µg/mL (≈ 24.5 µM)	512 µg/mL	16 µg/mL (≈ 24.5 µM)	512 µg/mL	8 µg/mL (≈ 12.3 µM)	512 µg/mL	8 µg/mL (≈ 12.3 µM)	512 µg/mL	128 µg/mL (≈ 196 µM)	512 µg/mL	8 µg/mL (≈ 12.3 µM)	512 µg/mL	16 µg/mL (≈ 24.5 µM)	512 µg/mL	64 µg/mL (≈ 98 µM)	>512 µg/mL	64 µg/mL (≈ 98 µM)	>512 µg/mL	MIC against all three strains of E. coli [1]: 16 µg/mL; MIC MRSE (MRSE CAN-ICU 61589): 16 µg/mL (≈ 24.5 µM); MIC MRSE in the presence of 4% bovine serum albumin (MRSE CAN-ICU 61589): 512 µg/mL; Percent haemolysis at 100µg/mL of compound (ovine erythrocytes): 61.06%; MIC S. maltophilia [3]: 64 µg/mL (≈ 98 µM); MIC S. maltophilia in the presence of 4% bovine serum albumin [3]: >512 µg/mL; MIC K.pneumoniae (K.pneumoniae ATCC 13883): 64 µg/mL (≈ 98 µM); MIC K.pneumoniae in the presence of 4% bovine serum albumin (K.pneumoniae ATCC 13883): 512 µg/mL; MIC A. baumannii [4]: 128 µg/mL (≈ 196 µM); MIC A. baumannii in the presence of 4% bovine serum albumin [4]: >512 µg/mL; MIC E. faecium (E. faecium ATCC 27270): 16 µg/mL (≈ 24.5 µM); MIC E. faecium in the presence of 4% bovine serum albumin (E. faecium ATCC 27270): 512 µg/mL
CCCCCCCCCCCCCCCC(=O)N(CCCCN)CC(=O)NCC(=O)N(CCCCN)CC(N)=O [C16-NlysGNlys] (Palmitoyl-[Nlys]-Gly-[Nlys]-NH2)	16 µg/mL (≈ 28.1 µM)	512 µg/mL	16 µg/mL (≈ 28.1 µM)	512 µg/mL	16 µg/mL (≈ 28.1 µM)	512 µg/mL	8 µg/mL (≈ 14.1 µM)	512 µg/mL	16 µg/mL (≈ 28.1 µM)	512 µg/mL	128 µg/mL (≈ 225 µM)	512 µg/mL	8 µg/mL (≈ 14.1 µM)	512 µg/mL	16 µg/mL (≈ 28.1 µM)	512 µg/mL	128 µg/mL (≈ 225 µM)	>512 µg/mL	64 µg/mL (≈ 113 µM)	>512 µg/mL	MIC against all three strains of E. coli [1]: 16 µg/mL; MIC MRSE (MRSE CAN-ICU 61589): 16 µg/mL (≈ 28.1 µM); MIC MRSE in the presence of 4% bovine serum albumin (MRSE CAN-ICU 61589): 512 µg/mL; Percent haemolysis at 100µg/mL of compound (ovine erythrocytes): 56.03%; MIC S. maltophilia [3]: 128 µg/mL (≈ 225 µM); MIC S. maltophilia in the presence of 4% bovine serum albumin [3]: >512 µg/mL; MIC K.pneumoniae (K.pneumoniae ATCC 13883): 64 µg/mL (≈ 113 µM); MIC K.pneumoniae in the presence of 4% bovine serum albumin (K.pneumoniae ATCC 13883): >512 µg/mL; MIC A. baumannii [4]: 128 µg/mL (≈ 225 µM); MIC A. baumannii in the presence of 4% bovine serum albumin [4]: >512 µg/mL; MIC E. faecium (E. faecium ATCC 27270): 16 µg/mL (≈ 28.1 µM); MIC E. faecium in the presence of 4% bovine serum albumin (E. faecium ATCC 27270): 512 µg/mL
CCCCCCCCCCCCCCCCCCCC(=O)N(CCCCN)CC(=O)N(CCCCN)CC(=O)N(CCCCN)CC(N)=O [C20-NlysNlysNlys]	32 µg/mL (≈ 46 µM)	256 µg/mL	32 µg/mL (≈ 46 µM)	256 µg/mL	32 µg/mL (≈ 46 µM)	256 µg/mL	16 µg/mL (≈ 23 µM)	128 µg/mL	16 µg/mL (≈ 23 µM)	256 µg/mL	64 µg/mL (≈ 91.9 µM)	512 µg/mL	8 µg/mL (≈ 11.5 µM)	128 µg/mL	16 µg/mL (≈ 23 µM)	256 µg/mL	64 µg/mL (≈ 91.9 µM)	512 µg/mL	128 µg/mL (≈ 184 µM)	512 µg/mL	MIC MRSE (MRSE CAN-ICU 61589): 8 µg/mL (≈ 11.5 µM); MIC MRSE in the presence of 4% bovine serum albumin (MRSE CAN-ICU 61589): 128 µg/mL; Percent haemolysis at 100µg/mL of compound (ovine erythrocytes): 68.29%; MIC S. maltophilia [3]: 64 µg/mL (≈ 91.9 µM); MIC S. maltophilia in the presence of 4% bovine serum albumin [3]: 512 µg/mL; MIC K.pneumoniae (K.pneumoniae ATCC 13883): 64 µg/mL (≈ 91.9 µM); MIC K.pneumoniae in the presence of 4% bovine serum albumin (K.pneumoniae ATCC 13883): 256 µg/mL; MIC A. baumannii [4]: 64 µg/mL (≈ 91.9 µM); MIC A. baumannii in the presence of 4% bovine serum albumin [4]: 512 µg/mL; MIC E. faecium (E. faecium ATCC 27270): 16 µg/mL (≈ 23 µM); MIC E. faecium in the presence of 4% bovine serum albumin (E. faecium ATCC 27270): 256 µg/mL; MIC against S. epidermidis with BSA (S. epidermidis): 128 µg/mL

Reference: article PMC3402541, “Guanidylation and Tail Effects in Cationic Antimicrobial Lipopeptoids” (PLoS ONE, 2012)
